Values after ≈ are worked out from the molar mass of the structure shown.
Tests used:
Assay type in all cases: cell-based
[1] = test system: Bacillus cereus (ATCC-10876); assay: MBC by sub-culture from wells without growth; conditions: Bacillus cereus, ATCC10876; B.cereus; read-out: MBC
Experimental: Bacillus cereus (ATCC-10876) […]
(§1) ATCC: American Type Culture Collection; NRRL: Northern Regional Research Laboratory The compounds 2(a-c) obtained could only be completely solubilised with dimethyl sulphoxide (DMSO) and the highest possible stock solutions of 50 mg.mL-1 were prepared. […]
(§2) 3.1. Determination of Minimum Inhibition Concentration (MIC)
(§3) The minimum inhibition concentration (MIC) values of the compounds 2(a-c) against the test bacteria used in the study were determined according to the broth microdilution method.[1-2] MHB or SDB was used as test medium and bacterial and yeast suspensions were prepared at 0.5 Mc Farland concentration for each test bacteria. Double layer serial dilutions were prepared in "U" type 96-well microtiter plates. Medium+bacteria suspensions containing only medium in the first row, medium+bacteria in the second row and the final concentrations of the synthesised substances in the other rows between 25 mg.mL-1 and […] were added to the wells with a final volume of 200
(§4) μL. Ampicillin, Kanamycin and Amphotericin B standard antibiotics were used as positive controls.
Bacteria were incubated at 37±0.1 °C and C. albicans at 30±0.1 °C for 24-48 hours and the lowest concentration without growth was determined as MIC. Tests were performed in two parallel runs and mean values were given as a result. In order to estimate “the minimum bactericidal/fungicidal concentrations (MBC/MFC) of the synthesised acrylonitrile derivatives “needed to indicate […] killing of the original inoculum,” 10 μl was taken from the wells with no observed growth and further sub-cultured onto their agar media (MHA and SDA for bacterial and fungal strains, respectively).[3] […]

[2] = test system: Escherichia coli (ATCC 25922); assay: MBC by sub-culture from wells without growth; conditions: ATCC25922, E.coli
Experimental: Escherichia coli (ATCC 25922) […]
as §1, §2, §3, §4
(§5) Bacteria were incubated at 37±0.1 °C and C. albicans at 30±0.1 °C for 24-48 hours and the lowest concentration without growth was determined as MIC. Tests were performed in two parallel runs and mean values were given as a result. […]

[3] = test system: Micrococcus luteus (NRRL-B-1018); assay: Broth microdilution MIC; conditions: NRRLB1018, M.luteus
Experimental: Micrococcus luteus (NRRL-B-1018) […]
as §1, §2, §3, §4, §5

MIC [3] [mg/mL] | SMILES | MBC [1] [mg/mL] | MBC [2] [mg/mL]
6.25 (≈ 26.6 mM) | COc1ccc(C=C(C#N)c2ccccc2)cc1 [2a, 3‐(4‐methoxyphenyl)‐2‐phenylacrylonitrile] | 12.5 (≈ 53.1 mM) | 5 (≈ 21.3 mM)
12.5 (≈ 49.4 mM) | COc1ccc(/C=C(\C#N)c2ccc(F)cc2)cc1 [2b] | 12.5 (≈ 49.4 mM) | 
2.5 (≈ 6.73 mM) | COc1ccc(/C=C(\C#N)c2cc(C(F)(F)F)cc(C(F)(F)F)c2)cc1 [2c] | 12.5 (≈ 33.7 mM) | 
